According to publication PMC7270110, “Labeled oxytocin administered via the intranasal route reaches the brain in rhesus macaques” (Nature Communications, 2020):
Values joined by “and” are separate entries in the source; they are usually repeats but may differ in a detail not shown here. Identical values can stand only once.

What was measured:
[1] = CSF concentration of d5OT by LC-MS/MS after IN or IV d5OT; format: in vivo, rhesus macaques (Macaca mulatta)
Method: (§1) The six monkeys were dosed once a week, for 4 consecutive weeks, with each DOSE–ROUTE condition of d5OT (40 IU IN, 40 IU IV, 80 IU IN, or 80 IU IV). Each DOSE–ROUTE condition was assigned using a Latin square randomization (Table 4). Sessions were separated by at least 6 days. During each session, CSF (750 µl) and blood (5 ml) samples were drawn immediately prior to (T = 0) and following (T = 60 and 120 min) each administration of d5OT.
(§2) Monkeys were divided into three groups, each with two monkeys; each group received the following in a terminal study at the 5th week: Group 1 (Monkeys ID# 1 and ID# 5) received 40 IU of d5OT IN, Group 2 received 80 IU of d5OT IN (Monkeys ID# 2 and ID# 4) and Group 3 received 80 IU of d5OT IV (Monkeys ID# 3 and ID# 6). Animals were perfused on average, 140 ± 7 (mean ± SD) min after d5OT administration (range = 135–149 min) (Table 4). Plasma and CSF were drawn just before administration of d5OT, at the midpoint between d5OT administration and perfusion (~60 min post-d5OT administration), and just before perfusion.
(§3) Chemicals: An unlabeled standard for d0OT and deuterated standard for d5OT were purchased from Sigma-Aldrich (St. Louis, MO); d10OT was purchased for use as an internal standard through a custom order from Cayman Chemical (Ann Arbor, MI). All other reagents were commercially available, and we purchased LC or MS grade chemicals when available. Plasma and CSF sample preparation for LC–MS/MS analysis. CSF and plasma samples were collected as described above. Using 15 ml polystyrene tubes, 1.0 ml of each standard, quality control (QC), or plasma sample was combined with 30 µl of internal standard mixture (34 ng/ml d10OT in 50:50 acetonitrile (ACN):water, v–v) and incubated for 20 min on ice. Volumes used for CSF samples ranged from 0.4 to 1.0 ml, depending on sample availability. CSF samples <1.0 ml were brought to a final volume of 1.0 ml using charcoal-stripped serum, prior to addition of internal standard. To each tube, 2 ml of ice-cold ACN was added, vortexed thoroughly, and centrifuged at 2500 × g for 10 min at 4 °C. The supernatants were transferred to new 13 mm × 100 mm polypropylene tubes and evaporated in a 37 °C water bath, under forced air, to a volume of <1 ml. We then added 5.5 ml of 0.2 M ammonium acetate (pH 3.0) in water, capped the tubes and mixed by inversion, before centrifugation at 2500 × g for 10 min at 4 °C.
Solid-phase extraction (SPE) columns (Strata-X-Drug B, 60 mg/6 ml, Phenomenex, Torrance, CA) were conditioned prior to use by adding 2 ml of methanol, followed by 2 ml of water, and 2 ml of 0.2 M ammonium acetate (pH 3.0) in water; each was allowed to flow through by gravity before the next was added. The supernatants from the previous step were then added to SPE columns (one supernatant per column) by pouring. Columns were washed with 2 ml ammonium acetate (pH 3.0) in water, followed by 2 ml water and 2 ml ACN, and dried for 5 min in a vacuum manifold (5 in Hg; Millipore, Burlington, MA). OT was eluted with 2 × 1 ml 0.2% ammonium hydroxide in methanol into 12 mm × 75 mm polypropylene tubes and evaporated to dryness under forced air in a 37 °C water bath. […] After a 15 min incubation at 4 °C, plates were filtered into microtiter plates (Shimadzu, Kyoto, Japan) using a positive pressure manifold (8 min at 5 psi, followed by 15 s at 15 psi; Biotage, Uppsala, Sweden), and analyzed. […]

[2] = 60 min, previous study, cited from earlier work
Method: This study has several limitations. The limit of quantification (100 pg/ml) and between subject variability for d5OT precluded comparisons of CSF concentrations of d5OT across routes of administration (IN vs. IV), or across time (60 vs. 120 min), for a given route. […] For example, mean plasma concentration of d5OT at 60 min in the IV condition was 1992 ± 476 pg/ml in the present study and 3306 ± 1162 pg/ml in the previous st ...

[3] = humans; 24 IU OT (not labelled) intranasally; 75 minutes post-administration; radioimmunoassay; ref Striepens et al., Sci Rep 2013; cited from earlier work
Method: page 8: 4. It is surprising that no CSF d5 OT was detected at 60 or 120 minutes in CSF after IN administration. […] In our previous study (Lee et al., Mol Psychiatry 2018), after IN administration, CSF d5OT concentration at 60 minutes was quantified in 4 monkeys as follows: 11.28, 15.99, 67.65 and 221.62 pg/ml. In this previous study, the limit of quantification (LOQ) for d5OT was 10 pg/ml. The LOQ of d5OT in the present study was 100 pg/ml and the method dete ...

[4] = CSF concentration of endogenous d0OT by LC-MS/MS; format: in vivo, rhesus macaques (Macaca mulatta)
Method: as §1, §2
as §3, with “We then added 5.5 ml of 0.2 M ammonium acetate (pH 3.0) in water, capped the tubes and mixed by inversion, before centrifugation at 2500 × g for 10 min at 4 °C.” left out
Solid-phase extraction (SPE) columns (Strata-X-Drug B, 60 mg/6 ml, Phenomenex, Torrance, CA) were conditioned prior to use by adding 2 ml of methanol, followed by 2 ml of water, and 2 ml of 0.2 M ammonium acetate (pH 3.0) in water; each was allowed to flow through by gravity before the next was added. […] After a 15 min incubation at 4 °C, plates were filtered into microtiter plates (Shimadzu, Kyoto, Japan) using a positive pressure manifold (8 min at 5 psi, followed by 15 s at 15 psi; Biotage, Uppsala, Sweden), and analyzed. […]

| d5OT in CSF ([1]; 120 min after IV administration (40 and 80 IU), LC-MS/MS, MDL 38 pg/ml) | d5OT in CSF ([1]; after IN administration of either dose (40 or 80 IU), any timepoint, LC-MS/MS, MDL 38 pg/ml) | d5OT in CSF ([1]; timepoint 60 min after 40 IU IV, N = 6, LC-MS/MS, LOQ 100 pg/ml, MDL 38 pg/ml) | d5OT in CSF ([1]; timepoint 60 min after 80 IU IV, N = 6, LC-MS/MS, LOQ 100 pg/ml, MDL 38 pg/ml) | Structure (SMILES) | d5OT in CSF ([1]; just prior to necropsy, after 80 IU IV, single monkey, LOQ 100 pg/ml) | Plasma d5OT ([2]; 80 IU IN condition) [pg/mL] | Mean plasma concentration of d5OT ([2]; IV condition) [ng/mL] | CSF OT concentration [3] | CSF concentrations of d0OT at necropsy ([4]; 40 IU IN condition, monkey #1) | CSF concentrations of d0OT at necropsy ([4]; 40 IU IN condition, one monkey) [pg/mL] | CSF concentrations of d0OT at necropsy ([4]; 80 IU IN condition, two monkeys, listed as d0OT) | CSF concentrations of d0OT at necropsy ([4]; 80 IU IV condition, two monkeys, listed as d0OT) |
| --- | --- | --- | --- | --- | --- | --- | --- | --- | --- | --- | --- | --- |
| no d5OT detected | no d5OT detected | detected | detected | CC[C@H](C)[C@@H]1NC(=O)[C@H](Cc2ccc(O)cc2)NC(=O)[C@@H](N)CSSC[C@@H](C(=O)N2CCC[C@H]2C(=O)N[C@@H](CC(C)C)C(=O)NCC(N)=O)NC(=O)[C@H](CC(N)=O)NC(=O)[C@H](CCC(N)=O)NC1=O [d5OT] | below the limit of quantification | 615 ± 474 | 3.306 ± 1.162 | – | – | – | – | – |
| – | – | – | – | CC[C@H](C)[C@@H]1NC(=O)[C@H](Cc2ccc(O)cc2)NC(=O)[C@@H](N)CSSC[C@@H](C(=O)N2CCC[C@H]2C(=O)N[C@@H](CC(C)C)C(=O)NCC(N)=O)NC(=O)[C@H](CC(N)=O)NC(=O)[C@H](CCC(N)=O)NC1=O [OT, oxytocin] | – | – | – | approximately 30 pg/ml | not quantified | 12 | 16 pg/mL and 10 pg/mL | 16 pg/mL and 14 pg/mL |
